Measurements as given in patent publication US20250326708A1, “LONG-ACTING SPLEEN-TARGETING CATIONIC LIPID COMPOUND COMPRISING BENZENE RING STRUCTURE, COMPOSITION COMPRISING SAME, AND USE THEREOF” (Beijing Youcarekechuang Pharmaceutical Technology Co., Ltd., priority 2024, published 2025).
Several values for one entry are separate records, joined by “and”; a condition that tells them apart may be missing. Identical values can stand only once.

System: 293T cells
Test: Fluorescence detection of Fluc-mRNA (transfection efficiency) of LNP preparations
Format: cell-based
Conditions: Fluc-mRNA LNP
Outline: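 293T cells seeded at 10,000 per well in 96-well plates overnight, then dosed with LNPs (cationic lipid:DSPC:cholesterol:DMG-PEG2000 49:10:39.5:1.5 molar; total lipid:mRNA 15:1 w/w) carrying 0.3 μg Fluc-mRNA. After 24 h, luciferase kit reagents added and fluorescence intensity per well read by IVIS imaging.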

CCCCCCCCCCCOC(=O)CCCN(CCCCCCC(=O)OCCC(CCCCCC)CCCCCC)CCNC(CO)(CO)CCc1ccc(CCCCCCCC)cc1 [YK-910, 3-hexylnonyl 7-((2-((1-hydroxy-2-(hydroxymethyl)-4-(4-octylphenyl)butan-2-yl)amino)ethyl) (4-oxo-4-(undecyloxy)butyl)amino) heptanoate] was tested, and the “Cellular transfection efficiency, times that of HHMA” value (vs HHMA) was 8.53 times, the “Cellular transfection efficiency, times that of I-1” value (vs I-1) was 42.56 times and the “Cellular transfection efficiency, times that of Lipofectamine 3000” value (vs Lipofectamine 3000) was 10.24 times. For the same molecule, the “Cellular transfection efficiency, times that of MC3” value (vs MC3) was 90.92 times, the “Cellular transfection efficiency, times that of SM-102” value (vs SM-102) was 6.04 times and the “Cellular transfection efficiency, times that of YK-501” value (vs YK-501) was 186.59 times. For the same molecule, the “Cellular transfection efficiency, times that of YK-506” value (vs YK-506) was 13.19 times, the “Cellular transfection efficiency, times that of YK-903” value (vs YK-903) was 345.06 times and the “Cellular transfection efficiency, times that of YK-906” value (vs YK-906) was 313 times and 313.25 times. For the same molecule, the “Cellular transfection efficiency, times that of compound 7” value (vs compound 7) was 33.51 times.
